Data taken from publication PMC10838382 (Cancer Drug Resistance, 2024).
Like-named read-outs stand apart in the source and are kept apart here.

Columns and labels:
[1] = tested on: MAXFLB MCF7; test: cells; settings: Homo sapiens, MCF7, read-out: Relative docetaxel IC50
[2] = tested on: PRXF 22Rv1; test: 2D proliferation assay (CellTiter-Blue); type: cell-based; settings: Homo sapiens
[3] = tested on: PC-3M; test: 2D proliferation assay (CellTiter-Blue); settings: Homo sapiens, read-out: Relative docetaxel IC50
[4] = tested on: MAXFTN MCF 10A; test: cells; settings: Homo sapiens, read-out: Relative docetaxel IC50
[5] = tested on: GXA NUGC-4; test: cells; settings: Homo sapiens, NUGC-4, read-out: Relative docetaxel IC50
[6] = tested on: OVXF EFO-27; test: 2D proliferation assay (CellTiter-Blue); settings: Homo sapiens, EFO-27, read-out: Relative docetaxel IC50
[7] = tested on: PRXF DU-145; test: 2D proliferation assay (CellTiter-Blue); type: cell-based, human; settings: Homo sapiens
[8] = tested on: LXFA EKVX; test: cells; settings: Homo sapiens, read-out: Relative docetaxel IC50
[9] = tested on: 22Rv1DOC8; test: 2D proliferation assay, docetaxel-resistant subline; type: cell-based, human; settings: for IC50: Homo sapiens
[10] = tested on: 22Rv1; test: 3D clonogenic assay (soft agar); settings: Homo sapiens, 22Rv1, read-out: Docetaxel IC50, 22Rv1, 3D clonogenic assay
[11] = tested on: PC-3DOC3; test: 2D proliferation assay, docetaxel-exposed subline; type: cell-based, human
[12] = tested on: DU-145; test: 3D clonogenic assay (soft agar); settings: Homo sapiens, DU-145, read-out: Docetaxel IC50, DU-145, 3D clonogenic assay
[13] = tested on: 22Rv1DOC8; test: 3D clonogenic assay (soft agar); type: cell-based, human; settings: for Relative resistance: 22Rv1DOC8 vs 22Rv1; for IC50: Homo sapiens
[14] = tested on: OVXF NCI-ADR-RES; test: cells; settings: Homo sapiens, read-out: Relative docetaxel IC50
[15] = tested on: MAXFTN CAL-51; test: cells; settings: Homo sapiens, CAL-51, read-out: Relative docetaxel IC50
[16] = tested on: 15 tumor cell lines; test: 2D proliferation assay (CellTiter-Blue), panel of 15 tumor cell lines; settings: read-out: mean relative IC50
[17] = tested on: DU-145DOC10; test: 2D proliferation assay, docetaxel-resistant subline; type: cell-based, human; settings: for IC50: Homo sapiens
[18] = tested on: PC-3; test: 2D proliferation assay (CellTiter-Blue); type: cell-based; settings: Homo sapiens
[19] = tested on: OVXF 899; test: cells; settings: read-out: Relative docetaxel IC50
[20] = tested on: GXA 3011; test: cells; settings: read-out: Relative docetaxel IC50
[21] = tested on: LXFA 737; test: 2D proliferation assay (CellTiter-Blue); settings: read-out: Relative docetaxel IC50
[22] = tested on: MAXFTN MX1; test: 2D proliferation assay (CellTiter-Blue); settings: read-out: Relative docetaxel IC50
[23] = tested on: Caco-2 cell monolayers; test: Bidirectional permeability assay across Caco-2 monolayers; type: in vitro ADME, human; settings: for ER: inhibitor where named: valspodar 10 μM or ritonavir 50 μM
Method: (§1) Samples were analyzed using LC-MS/MS.
(§2) The medium was changed 24 h before the experiment. […] The bioanalysis of docetaxel was performed with the .
(§3) The following equation was used to calculate apparent permeability coefficient (Papp):
(§4) dQ: amount of transporter test drug in pmol; dT: incubation time in seconds; A: surface of porous membrane in cm^2 (standard: 0.7); C0: initial concentration of test agent in the donor chamber in pmol/cm^3.

[24] = as above; type: in vitro ADME, human; settings: human
Method: as §1, §2, §3, §4

[25] = tested on: DU-145DOC10; test: 3D clonogenic assay (soft agar); type: cell-based, human; settings: for Relative resistance: DU-145DOC10 vs DU-145
[26] = without elacridar (elacridar experiment)
[27] = without ritonavir (ritonavir experiment)
[28] = docetaxel + elacridar 1 µM, 3D clonogenic assay
[29] = docetaxel + ritonavir 10 µM, 3D clonogenic assay
[30] = docetaxel without elacridar, 3D clonogenic assay
[31] = docetaxel without ritonavir, 3D clonogenic assay

CC(=O)O[C@@]12CO[C@@H]1C[C@H](O)[C@@]1(C)C(=O)[C@H](O)C3=C(C)[C@@H](OC(=O)[C@H](O)[C@@H](NC(=O)OC(C)(C)C)c4ccccc4)C[C@@](O)([C@@H](OC(=O)c4ccccc4)[C@H]21)C3(C)C [Docetaxel]
IC50 [1]: 1.1 nM
IC50 ([2]; 22Rv1, 2D culture, Figure 1, read-out: IC 50): 0.98 nM
IC50 ([2]; 22Rv1 parental, 2D proliferation assay, read-out: Docetaxel IC50): 1 nM
IC50 ([2]; PRXF 22Rv1, 2D proliferation assay, read-out: Relative docetaxel IC50): 1.5 nM
IC50 [3]: 2.4 nM
IC50 [4]: 0.7 nM
IC50 [5]: 5.5 nM
IC50 [6]: 0.7 nM
IC50 ([7]; DU-145, DU-145, 2D culture, Figure 1, read-out: IC 50): 0.81 nM
IC50 ([7]; DU-145, DU-145 parental, 2D proliferation assay, read-out: Docetaxel IC50): 0.8 nM
IC50 ([7]; DU-145, PRXF DU-145, 2D proliferation assay, read-out: Relative docetaxel IC50): 0.9 nM
IC50 [8]: 1.9 nM
Relative resistance ([9]; 22Rv1-DOC8 vs 22Rv1, 2D proliferation assay): 133.6
IC50 ([9]; 22Rv1-DOC8 (passage 8 nM docetaxel), 2D proliferation assay, read-out: Docetaxel IC50): 134 nM
IC50 ([9]; 22Rv1DOC8, 2D culture, Figure 1, read-out: IC 50): 134 nM
IC50 ([10]; + ritonavir 10 µM): 1.8 nM
IC50 [10, 26]: 1.3 nM
IC50 [10, 27]: 1.3 nM
IC50 ([11]; Homo sapiens, PC-3DOC3 (passage 2 nM docetaxel)): 4.4 nM
Relative resistance ([11]; PC-3DOC3 vs PC-3): 4.0
IC50 ([12]; + ritonavir 10 µM): 1.7 nM
IC50 [12, 26]: 1.1 nM
IC50 [12, 27]: 2.9 nM
fold decrease of relative IC50 of docetaxel by elacridar ([13]; 22Rv1DOC8, elacridar 1 µM as printed (lower of two concentrations), 3D clonogenic assay): 91 fold
fold decrease of relative IC50 of docetaxel by elacridar ([13]; 22Rv1DOC8, elacridar 10 µM as printed (higher of two concentrations), 3D clonogenic assay): 116 fold
fold decrease of docetaxel IC50 by ritonavir ([13]; 22Rv1DOC8, ritonavir 32 μM, 3D clonogenic assay): 84 fold
Relative resistance [13, 28]: 1.0
Relative resistance [13, 29]: 35.5
Relative resistance ([13]; docetaxel + ritonavir 10 µM, 3D clonogenic assay, listed as docetaxel): 36
Relative resistance ([13]; docetaxel + ritonavir 32 µM, 3D clonogenic assay): 2.3
Relative resistance [13, 30]: 103.1
Relative resistance [13, 31]: 42.0
IC50 ([13]; 22Rv1DOC8, 3D clonogenic assay, + elacridar 1 µM, read-out: Docetaxel IC50): 1.3 nM
IC50 ([13]; 22Rv1DOC8, 3D clonogenic assay, + ritonavir 10 µM, read-out: Docetaxel IC50): 46.2 nM
IC50 ([13]; 22Rv1DOC8, 3D clonogenic assay, + ritonavir 32 µM, read-out: Docetaxel IC50): 3 nM
IC50 ([13]; 22Rv1DOC8, 3D clonogenic assay, without elacridar (elacridar experiment), read-out: Docetaxel IC50): 134 nM
IC50 ([13]; 22Rv1DOC8, 3D clonogenic assay, without ritonavir (32 μM ritonavir experiment, Figure 5), read-out: relative IC50 value of docetaxel): 219 nM
IC50 ([13]; 22Rv1DOC8, 3D clonogenic assay, without ritonavir (ritonavir experiment), read-out: Docetaxel IC50): 54.6 nM
IC50 ([13]; 22Rv1DOC8, docetaxel alone, Figure 5A, read-out: IC 50): 224 nM
IC50 [14]: > 100 nM
IC50 [15]: 1.7 nM
IC50 [16]: 2.6 nM
Relative resistance ([17]; DU-145DOC10 vs DU-145, 2D proliferation assay): 22.3
IC50 ([17]; DU-145DOC10 (passage 10 nM docetaxel), 2D proliferation assay, read-out: Docetaxel IC50): 17.8 nM
IC50 ([17]; DU-145DOC10, 2D culture, Figure 1, read-out: IC 50): 17.8 nM
IC50 ([18]; PC-3, read-out: Relative docetaxel IC50): 1.9 nM
IC50 ([18]; PC-3 parental, read-out: Docetaxel IC50): 1.1 nM
IC50 [19]: 20.2 nM
IC50 [20]: 0.5 nM
IC50 [21]: 2.2 nM
IC50 [22]: 1.9 nM
ER values ([23]; both at 5 and 10 μM docetaxel, no inhibitor): > 2
ER ([23]; docetaxel 5 μM, incubation 60 min): 69.46 ± 13.24
ER ([23]; docetaxel 5 μM, incubation 120 min): 43.85 ± 3.80
ER ([23]; docetaxel 10 μM, incubation 120 min): 32.66 ± 5.35
Papp A→B at 60 min, 5 μM ([24]; Caco-2): 0.29 ± 0.06 ×10⁻⁶ cm/s
Papp A→B at 60 min, 10 μM ([24]; Caco-2): 0.66 ± 0.02 ×10⁻⁶ cm/s
Papp A→B at 120 min, 5 μM ([24]; Caco-2): 0.81 ± 0.06 ×10⁻⁶ cm/s
Papp A→B at 120 min, 10 μM ([24]; Caco-2): 0.91 ± 0.15 ×10⁻⁶ cm/s
Papp B→A at 60 min, 5 μM ([24]; Caco-2): 20.3 ± 0.25 ×10⁻⁶ cm/s
Papp B→A at 60 min, 10 μM ([24]; Caco-2): 21 ± 0.78 ×10⁻⁶ cm/s
Papp B→A at 120 min, 5 μM ([24]; Caco-2): 35.4 ± 1.83 ×10⁻⁶ cm/s
Papp B→A at 120 min, 10 μM ([24]; Caco-2): 29.6 ± 0.8 ×10⁻⁶ cm/s
efflux ratio at 60 min, 5 μM ([24]; Caco-2, docetaxel 5 μM, incubation 60 min, inhibitor where named: valspodar 10 μM or ritonavir 50 μM, read-out: ER): 69.5
efflux ratio at 120 min, 5 μM ([24]; Caco-2, docetaxel 5 μM, incubation 120 min, inhibitor where named: valspodar 10 μM or ritonavir 50 μM, read-out: ER): 43.9
efflux ratio at 60 min, 10 μM ([24]; Caco-2, docetaxel 10 μM, incubation 60 min, inhibitor where named: valspodar 10 μM or ritonavir 50 μM, read-out: ER): 31.8 ± 1.54
efflux ratio at 120 min, 10 μM ([24]; Caco-2, docetaxel 10 μM, incubation 120 min, inhibitor where named: valspodar 10 μM or ritonavir 50 μM, read-out: ER): 32.7
IC50 ([25]; DU-145DOC10, 3D clonogenic assay, without elacridar (elacridar experiment), read-out: Docetaxel IC50): 11.7 nM
fold decrease of relative IC50 of docetaxel by elacridar ([25]; DU-145DOC10, elacridar 1 µM as printed (lower of two concentrations), 3D clonogenic assay): 6 fold
fold decrease of relative IC50 of docetaxel by elacridar ([25]; DU-145DOC10, elacridar 10 µM as printed (higher of two concentrations), 3D clonogenic assay): 7.1 fold
fold lower docetaxel IC50 on addition of ritonavir ([25]; DU-145DOC10, ritonavir 10 µM, 3D clonogenic assay): 3.4 fold
Relative resistance [25, 28]: 1.5
Relative resistance [25, 29]: 1.0
Relative resistance [25, 30]: 10.6
Relative resistance [25, 31]: 3.3
IC50 ([25]; Homo sapiens, DU-145DOC10, 3D clonogenic assay, + elacridar 1 µM, read-out: Docetaxel IC50): 1.6 nM
IC50 ([25]; Homo sapiens, DU-145DOC10, 3D clonogenic assay, + elacridar, first of two values both printed as 1 μM (Figure 6 legend), read-out: Docetaxel IC50): 1.9 nM
IC50 ([25]; Homo sapiens, DU-145DOC10, 3D clonogenic assay, + ritonavir 10 µM, read-out: Docetaxel IC50): 2.8 nM
IC50 ([25]; Homo sapiens, DU-145DOC10, 3D clonogenic assay, without elacridar (elacridar experiment), read-out: Docetaxel IC50): 11.4 nM
IC50 ([25]; Homo sapiens, DU-145DOC10, 3D clonogenic assay, without ritonavir (ritonavir experiment), read-out: Docetaxel IC50): 9.5 nM
IC50 ([25]; Homo sapiens, DU-145DOC10, docetaxel alone, Figure 4A, read-out: IC 50): 9.37 nM
IC50 ([25]; Homo sapiens, DU-145DOC10, docetaxel alone, Figure 6A, read-out: IC 50): 11.4 nM
